The values that follow come from PMC5423902, “CXCL9-Derived Peptides Differentially Inhibit Neutrophil Migration In Vivo through Interference with Glycosaminoglycan Interactions” (Frontiers in Immunology, 2017).

Assay [1] deals with MSU crystal-induced neutrophil migration. Conditions: murine model; cited from earlier work. An excerpt:
Because of their essential role for the migration of leukocytes, chemokines and their GPCRs can serve as potential targets for the development of new anti-inflammatory drugs ([24]–[26]). Several neutralizing ligands or antibodies, modified chemokines or small molecules have been developed as antagonists ([27]–[30]). However, only two chemokine receptor antagonists are currently used as therapeutics, namely, Maraviroc (a CCR5 antagonist) and AMD3100 (a CXCR4 antagonist) ([31], [32]). Remarkably, these antagonists are not used as anti-inflammatory drugs, but, respectively, as an inhibitor of hum ...

For assay [2], the system named is CXCL8-induced neutrophil migration. In words: CXCL8-induced neutrophil migration to the peritoneal cavity. The assay is classed as in vivo, mouse (NMRI). Conditions: for neutrophils in the peritoneal cavity upon CXCL8 / percentage of neutrophils in the peritoneal cavity upon CXCL8: n ≥ 5; for neutrophils in the peritoneal cavity upon CXCL8: significant. Here is the method:
In vivo neutrophil extravasation to the peritoneal or the knee cavity was examined, respectively, by intraperitoneal or intra-articular injection, of endotoxin-free recombinant CXCL8(1-77) (PeproTech) or vehicle (PBS) in female NMRI or C57BL/6 mice, as described previously ([42], [48]). Simultaneously, synthetic CXCL9 peptide was co-injected either intraperitoneally or injected intravenously. After 2 h (peritoneal cavity) or 3 h (knee cavity), mice were sacrificed. The peritoneal cavity was washed with saline enriched with 2% FCS and 20 U/ml heparin and total leukocyte counts were determined. For the preparation of cytospins, 10^5 cells were used and absolute number and percentage of neutrophils in the lavages were determined in duplicate independently by two researchers by differential microscopic counting. The cells present in the tibiofemoral articulation were harvested by washing the cavity with 10 µl of 3% (w/v) bovine serum albumin in PBS and diluted in 90 µl of 3% (w/v) bovine serum albumin in PBS. The number of total leukocytes was determined by counting leukocytes in a Neubauer chamber after staining with Turk’s solution. Differential counts were obtained from cytospin preparations by evaluating the percentage of each leukocyte type on a slide stained with May-Grunwald-Giemsa solution.
Figure 4 The COOH-terminal peptides of CXCL9 inhibit CXCL8-induced neutrophil migration to the peritoneal cavity. CXCL8(1-77) was injected into the peritoneal cavity of NMRI mice (n ≥ 5) simultaneously with an intraperitoneal (A) or intravenous (B,C) injection of CXCL9(74-103) or CXCL9(74–93). The number of neutrophils in the peritoneal cavity, 2 h post injection, were evaluated by differentially counting the leukocyte subtypes on Hemacolor-stained cytospins. The neutrophil counts are shown for every individual mouse, and the horizontal lines denote the median percentage. To detect statistically significant differences, the Mann–Whitney U-test was carried out (*p < 0.05; **p < 0.01; ***p < 0.005).

A short description of assay [3]: Isothermal fluorescence titration (IFT), CS. The assay is classed as binding. Conditions: for Kd: isothermal fluorescence titration, TAMRA-labeled peptide, read-out: affinity (KD) for CS. How it is done: To study the interaction between CXCL9(74-93) and GAGs, titration experiments were performed as described by Gerlza et al. ([46]) using TAMRA-labeled synthetic CXCL9(74-93), TAMRA-labeled synthetic CXCL9(74-103), HS (Iduron BN1, Manchester, UK), low molecular weight heparin (LMWH; Iduron BN5), and chondroitin sulfate (CS; Carbosynth, Compton, UK).

For assay [4], the system named is CXCL8(1-77) binding to cellular GAGs on CHO cells. Briefly: Competition with biotinylated CXCL8 for binding to CHO cells, flow cytometry. It counts as cell-based, Chinese hamster. Conditions: mean, n ≥ 4, Figure 3C (300 nM CXCL8). Here is the method: Binding of biotinylated CXCL9(74-103) and CXCL9(74-93) to CHO cells was assessed by flow cytometry as recently described ([42]). Briefly, cells were detached with phosphate-buffered saline (PBS) with 0.02% ethylenediaminetetraacetic acid (EDTA) and incubated with NH2-terminally biotinylated peptides. Subsequently, cells were incubated with streptavidin-allophycocyanin (BD Biosciences, San Jose, CA, USA) and analyzed by flow cytometry (FACSCalibur, BD Biosciences). To confirm inhibition of sulfation of cellular GAGs, part of the cells were stained with a mouse monoclonal anti-human HS antibody (Immunosource, Schilde, Belgium) and a secondary phycoerythrin-labeled goat anti-mouse antibody (BD Biosciences). Finally, cells were analyzed by flow cytometry. Analogously, binding of 100 nM biotinylated CXCL8 in the presence or absence of CXCL9(74-103) or CXCL9(74-93) was compared on CHO cells.
(§1) Figure 3 CXCL9(74-93) competes with CXCL8 for binding to heparin, heparan sulfate (HS), and cellular glycosaminoglycans (GAGs). Competition between CXCL8 and COOH-terminal CXCL9 or CXCL4 peptides for binding to immobilized heparin (A) or HS (B) and to Chinese hamster ovary (CHO) cells (C) was performed. […] Bound CXCL8 was detected with biotinylated anti-human CXCL8 antibodies. (C) Binding of NH2-terminally biotinylated CXCL8(1-77) (300 nM) to CHO cells in the presence or absence of an excess CXCL9 peptide was detected by streptavidin-allophycocyanin and flow cytometry. The mean (± SEM) percentage inhibition of binding of CXCL8(1-77) to heparin, HS or cellular GAGs is indicated on the y-axis (n ≥ 4). Statistical comparison of the different competitors with CXCL9(74–103) was performed using the Mann–Whitney U-test (*p < 0.05).

Assay [5] has as its system CXCL8(1-77) binding to heparin. In words: Competition with CXCL8 for binding to immobilized heparin (ELISA-like). Further details: species or system human. The settings on record: heparin-coated plates, CXCL8(1-77) 0-300 nM, 2 h at 37°C; anti-CXCL8 detection, 450 nm; n ≥ 4; Figure 3A. Here is the method:
The ability of the COOH-terminal peptides of CXCL9 and CXCL4 to compete for GAG binding with the inflammatory chemokines CXCL8 and CXCL1 was evaluated on heparin-binding plates [BD Biosciences or produced by Jason Whittle (School of Engineering/Future Industries Institute, University of South Australia, Australia)] ([42], [47]). In brief, GAGs (heparin, HS, and CS; Iduron; 25 µg/ml) were coated overnight at room temperature. Dilutions of COOH-terminal CXCL9 or CXCL4 peptide combined with recombinant human CXCL8(1-77) or recombinant murine CXCL1(1-72) (Peprotech, Rocky Hill, NJ, USA) were added in duplicate and incubated for 2 h at 37°C. Subsequently, bound CXCL8 or CXCL1 was detected with biotinylated polyclonal rabbit anti-human CXCL8 or biotinylated polyclonal goat anti-mouse CXCL1 (Peprotech) and horse radish peroxidase-labeled streptavidin. Finally, the peroxidase activity was quantified at 450 nm.
as §1

Take “74KKKQKNGKKHQKKKVLKVRKSQRSRQKKTT103 [CXCL9(74-103), COOH-terminal peptide of CXCL9]”: the “inhibition of neutrophil extravasation in MSU crystal-induced gout” value in assay [1] is “able to inhibit neutrophil extravasation”. Also, the “reduction of CXCL8-induced neutrophil recruitment to peritoneal cavity” value in assay [2] (12 µg peptide i.p., Figure 4A) is recorded as “failed to reduce CXCL8-induced neutrophil recruitment”; in assay [2] (36 µg peptide i.p., Figure 4A), “failed to reduce CXCL8-induced neutrophil recruitment”. Moreover, the “neutrophil influx to peritoneal cavity upon CXCL8” value in assay [2] (36 µg peptide i.v., not significant, Figure 4B) was “a trend toward a lower neutrophil influx”. The “neutrophils in the peritoneal cavity upon CXCL8” value in assay [2] (108 µg peptide i.p. co-injected with 1 µg CXCL8 i.p., NMRI, 2 h, CXCL8 alone about 142 × 10^4, Figure 4A) is on record as 45 × 10^4 neutrophils; in assay [2] (peptide i.v. (highest dose tested, dose not given), CXCL8 i.p., control 148 × 10^4, Figure 4B), 81 × 10^4 neutrophils. The “percentage of neutrophils in the peritoneal cavity upon CXCL8” value in assay [2] (108 µg peptide i.p. co-injected with 1 µg CXCL8 i.p., NMRI, 2 h, Figure 4A) was 6.6%; in assay [2] (peptide i.v. (highest dose tested, dose not given), CXCL8 i.p., control 16.5%, Figure 4B), 10.1%. The “reduction of CXCL8-induced neutrophil migration to peritoneal cavity” value in assay [2] (lower doses i.v., Figure 4B) is “not able to reduce the neutrophil migration significantly”. The “relative affinity for CS” value in assay [3] (compared to CXCL9(74-93)) is on record as “about fourfold higher affinity for CS”. Moreover, the Kd in assay [3] was found to be 68 ± 4.6 nM. In addition, the “inhibition of binding of biotinylated CXCL8 to cellular GAGs” value in assay [4] (30-fold excess of peptide) is 53%. Moreover, the “molar excess over CXCL8 giving 50% reduction of CXCL8 binding to heparin” value in assay [5] was determined as 10 fold molar excess.

On to “74KKKQKNGKKHQKKKVLKVRK93 [CXCL9(74-93), COOH-terminal peptide of CXCL9 lacking the 10 COOH-terminal amino acids of CXCL9(74-103)]”, for which, in assay [2] (66 µg peptide i.v. (equal molar amount to 108 µg CXCL9(74-103)), CXCL8 i.p., control 192 × 10^4, Figure 4C), the “neutrophils in the peritoneal cavity upon CXCL8” value was 65 × 10^4 neutrophils. In addition, the “percentage of neutrophils in the peritoneal cavity upon CXCL8” value in assay [2] (66 µg peptide i.v., CXCL8 i.p., control 19%, Figure 4C) is 8.25%. Besides, the “potency against CXCL8 relative to CXCL9(74-103)” value in assay [2] (i.v., peritoneal model, Figure 4C) is “equally potent inhibitor of CXCL8 than CXCL9(74-103)”. In addition, the Kd in assay [3] stood at 296 ± 19 nM. The figures for the “inhibition of binding of biotinylated CXCL8 to cellular GAGs” value in assay [4] (30-fold excess of peptide) and in assay [4] (100-fold excess of peptide) were 31% and 50%, respectively. In assay [5], the “molar excess over CXCL8 giving 50% reduction of CXCL8 binding to heparin” value is on record as 10 fold molar excess.
